Assay results as given in patent US8940724B2, “Quinoline derivitives and their uses” (Amgen Inc., priority 2009, dated 2015).

These compounds were tested against T1, PI3Kδ (Homo sapiens, UniProt O00329) (assay: PI3Kδ Alphascreen assay).
T1 construct: Full length p110 subunits of PI3k α, β and δ, N-terminally labeled with polyHis tag; polyHis (N); made in house; host or cells: Sf9 insect cells (baculovirus)
T1 sequence (O00329 whole entry): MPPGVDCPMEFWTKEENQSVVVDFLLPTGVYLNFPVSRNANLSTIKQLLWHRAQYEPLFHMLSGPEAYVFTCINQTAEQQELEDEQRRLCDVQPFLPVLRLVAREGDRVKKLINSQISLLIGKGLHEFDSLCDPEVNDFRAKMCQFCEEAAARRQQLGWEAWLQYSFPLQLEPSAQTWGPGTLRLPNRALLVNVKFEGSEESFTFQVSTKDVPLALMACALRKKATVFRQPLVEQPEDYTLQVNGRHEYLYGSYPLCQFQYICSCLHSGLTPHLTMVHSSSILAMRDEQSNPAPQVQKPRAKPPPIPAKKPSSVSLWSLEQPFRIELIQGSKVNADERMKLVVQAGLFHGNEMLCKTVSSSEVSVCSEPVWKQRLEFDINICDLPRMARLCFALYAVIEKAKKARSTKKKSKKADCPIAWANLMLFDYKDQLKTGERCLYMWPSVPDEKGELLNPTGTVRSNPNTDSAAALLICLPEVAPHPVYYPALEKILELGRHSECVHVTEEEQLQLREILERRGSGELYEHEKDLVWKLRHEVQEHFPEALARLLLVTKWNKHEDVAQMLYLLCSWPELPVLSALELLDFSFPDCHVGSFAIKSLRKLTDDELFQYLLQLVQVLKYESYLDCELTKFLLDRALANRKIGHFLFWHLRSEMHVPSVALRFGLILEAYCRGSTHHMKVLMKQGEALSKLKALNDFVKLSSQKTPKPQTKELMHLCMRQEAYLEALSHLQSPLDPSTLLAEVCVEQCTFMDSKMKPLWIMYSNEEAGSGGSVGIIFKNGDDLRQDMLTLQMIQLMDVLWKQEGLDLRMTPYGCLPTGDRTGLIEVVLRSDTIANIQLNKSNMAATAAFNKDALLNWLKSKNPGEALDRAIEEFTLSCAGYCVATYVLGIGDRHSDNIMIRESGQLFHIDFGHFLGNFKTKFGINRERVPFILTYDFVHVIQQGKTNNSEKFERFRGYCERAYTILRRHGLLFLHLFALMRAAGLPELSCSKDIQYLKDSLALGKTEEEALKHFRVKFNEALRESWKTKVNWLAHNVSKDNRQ
T1 sequence (P27986 whole entry partner): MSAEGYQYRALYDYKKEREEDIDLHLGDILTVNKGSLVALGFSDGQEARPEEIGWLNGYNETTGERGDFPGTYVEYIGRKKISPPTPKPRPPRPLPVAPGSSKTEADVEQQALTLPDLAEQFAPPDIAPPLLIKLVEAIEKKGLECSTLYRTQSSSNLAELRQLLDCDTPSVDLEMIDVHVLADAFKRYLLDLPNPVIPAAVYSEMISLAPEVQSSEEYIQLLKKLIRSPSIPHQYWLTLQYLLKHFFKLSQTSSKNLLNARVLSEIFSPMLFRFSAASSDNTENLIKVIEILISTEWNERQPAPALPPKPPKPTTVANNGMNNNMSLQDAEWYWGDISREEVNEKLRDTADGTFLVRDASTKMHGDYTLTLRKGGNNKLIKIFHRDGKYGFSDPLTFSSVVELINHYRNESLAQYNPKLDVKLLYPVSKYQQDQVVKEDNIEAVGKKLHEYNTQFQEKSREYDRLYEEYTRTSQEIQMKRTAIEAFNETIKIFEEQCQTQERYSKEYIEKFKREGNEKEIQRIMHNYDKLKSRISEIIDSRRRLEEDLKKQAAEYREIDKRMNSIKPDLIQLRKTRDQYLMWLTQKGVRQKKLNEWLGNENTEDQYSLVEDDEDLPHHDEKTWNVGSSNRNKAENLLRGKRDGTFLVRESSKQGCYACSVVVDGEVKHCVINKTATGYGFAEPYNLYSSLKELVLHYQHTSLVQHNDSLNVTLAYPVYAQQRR
Format: biochemical
Work on `Cc1c(N2CCN(S(=O)(=O)c3ccccc3)CC2)nc2cc(F)cc(F)c2c1Nc1cncc(N2CCOCC2)c1` [5,7-difluoro-3-methyl-N-(5-(4-morpholinyl)-3-pyridinyl)-2-(4-(phenylsulfonyl)-1-piperazinyl)-4-quinolinamine] yielded a Ki of 33.4 nM.
In the case of `Cc1c(N2CCN(C(=O)C3CCOCC3)CC2)nc2cc(F)cc(F)c2c1Nc1cncc(N2CCOCC2)c1` [5,7-difluoro-3-methyl-N-(5-(4-morpholinyl)-3-pyridinyl)-2-(4-(tetrahydro-2H-pyran-4-ylcarbonyl)-1-piperazinyl)-4-quinolinamine], the Ki is reported as 55.7 nM.
Compound `Cc1c(N2CCN(c3ccccc3)CC2)nc2cc(F)cc(F)c2c1Nc1cncc(N2CCOCC2)c1` [5,7-difluoro-3-methyl-N-(5-(4-morpholinyl)-3-pyridinyl)-2-(4-phenyl-1-piperazinyl)-4-quinolinamine] has a Ki of 78.1 nM.
`CCCN1CCN(c2nc3cc(F)cc(F)c3c(Nc3cncc(N4CCOCC4)c3)c2C)CC1` [5,7-difluoro-3-methyl-N-(5-(4-morpholinyl)-3-pyridinyl)-2-(4-propyl-1-piperazinyl)-4-quinolinamine] showed a Ki of 13.5 nM.
`Cc1c(-c2ccc(N3CCNCC3)nc2)nc2cc(F)cc(F)c2c1Nc1cncc(N2CCOCC2)c1` [5,7-difluoro-3-methyl-N-(5-(4-morpholinyl)-3-pyridinyl)-2-(6-(1-piperazinyl)-3-pyridinyl)-4-quinolinamine] gave a Ki of 432 nM.
`Cc1c(-c2ccc(N3CCCCC3)nc2)nc2cc(F)cc(F)c2c1Nc1cncc(N2CCOCC2)c1` [5,7-difluoro-3-methyl-N-(5-(4-morpholinyl)-3-pyridinyl)-2-(6-(1-piperidinyl)-3-pyridinyl)-4-quinolinamine] gave a Ki of 517 nM.
`Cc1c(-c2ccc(N3CCOCC3)nc2)nc2cc(F)cc(F)c2c1Nc1cncc(N2CCOCC2)c1` [5,7-difluoro-3-methyl-N-(5-(4-morpholinyl)-3-pyridinyl)-2-(6-(4-morpholinyl)-3-pyridinyl)-4-quinolinamine] showed a Ki of 444 nM.
With `Cc1c(N2CCN(CC(F)(F)F)CC2)nc2cc(F)cc(F)c2c1N(CC(F)(F)F)c1cncc(N2CCOCC2)c1` [5,7-difluoro-3-methyl-N-(5-(4-morpholinyl)-3-pyridinyl)-N-(2,2,2-trifluoroethyl)-2-(4-(2,2,2-trifluoroethyl)-1-piperazinyl)-4-quinolinamine] the Ki was 493 nM.
`Cc1c(-c2cccnc2)nc2cc(F)cc(F)c2c1Nc1cc(N2CCOC[C@H]2C)cnc1N1CCOCC1` [5,7-difluoro-3-methyl-N-(5-((3R)-3-methyl-4-morpholinyl)-2-(4-morpholinyl)-3-pyridinyl)-2-(3-pyridinyl)-4-quinolinamine] gave a Ki of 69.5 nM.
`Cc1c(-c2cccnc2)nc2cc(F)cc(F)c2c1Nc1cc(N2CCOC[C@@H]2C)cnc1N1CCOCC1` [5,7-difluoro-3-methyl-N-(5-((3S)-3-methyl-4-morpholinyl)-2-(4-morpholinyl)-3-pyridinyl)-2-(3-pyridinyl)-4-quinolinamine] gave a Ki of 21.4 nM.
For `COc1ccccc1-c1ncc(N2CCOCC2)cc1Nc1c(C)c(-c2ccccn2)nc2cc(F)cc(F)c12` [5,7-difluoro-N-(2-(2-methoxyphenyl)-5-(4-morpholinyl)-3-pyridinyl)-3-methyl-2-(2-pyridinyl)-4-quinolinamine], the Ki was 8.53 nM.
For `COc1cc(C)c(-c2ncc(N3CCOCC3)cc2Nc2c(C)c(-c3ccccn3)nc3cc(F)cc(F)c23)c(C)c1` [5,7-difluoro-N-(2-(4-methoxy-2,6-dimethylphenyl)-5-(4-morpholinyl)-3-pyridinyl)-3-methyl-2-(2-pyridinyl)-4-quinolinamine], the Ki was 0.972 nM.
`COc1ccc(-c2ncc(N3CCOCC3)cc2Nc2c(C)c(-c3cc(C)ccn3)nc3cc(F)cc(F)c23)cc1` [5,7-difluoro-N-(2-(4-methoxyphenyl)-5-(4-morpholinyl)-3-pyridinyl)-3-methyl-2-(4-methyl-2-pyridinyl)-4-quinolinamine] gave a Ki of 5.98 nM.
`COc1cncc(-c2ccc(N3CCOCC3)cc2Nc2c(C)c(-c3ccccn3)nc3cc(F)cc(F)c23)c1` [5,7-difluoro-N-(2-(5-methoxy-3-pyridinyl)-5-(4-morpholinyl)-phenyl)-3-methyl-2-(2-pyridinyl)-4-quinolinamine] showed a Ki of 0.627 nM.
`COc1ccc(-c2ccc(N3CCOCC3)cc2Nc2c(C)c(-c3ccccc3S(C)(=O)=O)nc3cc(F)cc(F)c23)cn1` [5,7-difluoro-N-(2-(6-methoxy-3-pyridinyl)-5-(4-morpholinyl)-phenyl)-3-methyl-2-(2-(methylsulfonyl)phenyl)-4-quinolinamine] gave a Ki of 2.73 nM.
In the case of `COc1ccc(-c2ccc(N3CCOCC3)cc2Nc2c(C)c(-c3ccccn3)nc3cc(F)cc(F)c23)cn1` [5,7-difluoro-N-(2-(6-methoxy-3-pyridinyl)-5-(4-morpholinyl)-phenyl)-3-methyl-2-(2-pyridinyl)-4-quinolinamine], the Ki is reported as 3.19 nM.
`COc1ccc(-c2ccc(N3CCOCC3)cc2Nc2c(C)c(-c3cc(C)ccn3)nc3cc(F)cc(F)c23)cn1` [5,7-difluoro-N-(2-(6-methoxy-3-pyridinyl)-5-(4-morpholinyl)-phenyl)-3-methyl-2-(4-methyl-2-pyridinyl)-4-quinolinamine] gave a Ki of 3.59 nM.
`COc1ccc(-c2ccc(N3CCOCC3)cc2Nc2c(C)c(-c3ccccn3)nc3cc(F)cc(F)c23)cc1` [5,7-difluoro-N-(4′-methoxy-4-(4-morpholinyl)-2-biphenylyl)-3-methyl-2-(2-pyridinyl)-4-quinolinamine] showed a Ki of 38.5 nM.
Compound `Cc1c(-c2ccccn2)nc2cccc(F)c2c1Nc1cc(N2CCOCC2)ccc1S(C)(=O)=O` [5-fluoro-3-methyl-N-(2-(methylsulfonyl)-5-(4-morpholinyl)-phenyl)-2-(2-pyridinyl)-4-quinolinamine] has a Ki of 0.485 nM.
`Cc1c(-c2cc([N+](=O)[O-])ccc2F)nc2cc(F)ccc2c1Nc1cncc(N2CCOCC2)c1` [7-fluoro-2-(2-fluoro-5-nitrophenyl)-3-methyl-N-(5-(4-morpholinyl)-3-pyridinyl)-4-quinolinamine] was tested, and the Ki was 47.5 nM.
`Cc1ccnc(-c2nc3c(Cl)cccc3c(Nc3cncc(N4CCOCC4)c3)c2C)c1` [8-chloro-3-methyl-2-(4-methyl-2-pyridinyl)-N-(5-(4-morpholinyl)-3-pyridinyl)-4-quinolinamine] was tested, and the Ki was 2.39 nM.
Work on `Cc1c(-c2ccccn2)nc2c(Cl)cccc2c1Nc1cncc(N2CCOCC2)c1` [8-chloro-3-methyl-N-(5-(4-morpholinyl)-3-pyridinyl)-2-(2-pyridinyl)-4-quinolinamine] yielded a Ki of 7.45 nM.
`Cc1ccnc(-c2nc3c(Cl)cccc3c(Nc3cc(N4CCOCC4)cnc3N3CCOCC3)c2C)c1` [8-chloro-N-(2,5-di-4-morpholinyl-3-pyridinyl)-3-methyl-2-(4-methyl-2-pyridinyl)-4-quinolinamine] was tested, and the Ki was 9.49 nM.
Work on `Cc1c(-c2ccccn2)nc2c(Cl)c(F)cc(F)c2c1Nc1cc(N2CCOCC2)cnc1N1CCOCC1` [8-chloro-N-(2,5-di-4-morpholinyl-3-pyridinyl)-5,7-difluoro-3-methyl-2-(2-pyridinyl)-4-quinolinamine] yielded a Ki of 2.85 nM.
In the case of `Cc1c(-c2ccccn2)nc2c(Cl)ccc(F)c2c1Nc1cc(N2CCOCC2)cnc1N1CCOCC1` [8-chloro-N-(2,5-di-4-morpholinyl-3-pyridinyl)-5-fluoro-3-methyl-2-(2-pyridinyl)-4-quinolinamine], the Ki is reported as 2.57 nM.
`Cc1c(-c2ccccn2)nc2c(Cl)c(F)ccc2c1Nc1cc(N2CCOCC2)cnc1N1CCOCC1` [8-chloro-N-(2,5-di-4-morpholinyl-3-pyridinyl)-7-fluoro-3-methyl-2-(2-pyridinyl)-4-quinolinamine] showed a Ki of 22.6 nM.
Work on `Cc1c(-c2cc([C@@H](C)O)ccc2S(C)(=O)=O)nc2cc(F)cc(F)c2c1Nc1cncc(N2CCOCC2)c1` [(1R)-1-(3-(5,7-difluoro-3-methyl-4-((5-(4-morpholinyl)-3-pyridinyl)amino)-2-quinolinyl)-4-(methylsulfonyl)phenyl)-ethanol] yielded a Ki of 1.57 nM.
In the case of `Cc1c(-c2ccccn2)nc2cc(F)cc(F)c2c1Nc1cc(C2=CCOCC2)cnc1C1=CCOCC1` [N-(2,5-di-3,6-dihydro-2H-pyran-4-yl-3-pyridinyl)-5,7-difluoro-3-methyl-2-(2-pyridinyl)-4-quinolinamine], the Ki is reported as 3.08 nM.
In the case of `C=Cc1ccnc(-c2nc3cc(F)cc(F)c3c(Nc3cc(N4CCOCC4)cnc3N3CCOCC3)c2C)c1` [N-(2,5-di-4-morpholinyl-3-pyridinyl)-2-(4-ethenyl-2-pyridinyl)-5,7-difluoro-3-methyl-4-quinolinamine], the Ki is reported as 119 nM.
In the case of `CCOc1ccc(-c2nc3cc(F)cc(F)c3c(Nc3cc(N4CCOCC4)cnc3N3CCOCC3)c2C)cn1` [N-(2,5-di-4-morpholinyl-3-pyridinyl)-2-(6-ethoxy-3-pyridinyl)-5,7-difluoro-3-methyl-4-quinolinamine], the Ki is reported as 25.5 nM.
`Cc1c(-c2ccccc2F)nc2cc(F)cc(F)c2c1Nc1cc(N2CCOCC2)cnc1N1CCOCC1` [N-(2,5-di-4-morpholinyl-3-pyridinyl)-5,7-difluoro-2-(2-fluorophenyl)-3-methyl-4-quinolinamine] was tested, and the Ki was 6.22 nM.
In the case of `COc1cc(-c2nc3cc(F)cc(F)c3c(Nc3cc(N4CCOCC4)cnc3N3CCOCC3)c2C)ccn1` [N-(2,5-di-4-morpholinyl-3-pyridinyl)-5,7-difluoro-2-(2-methoxy-4-pyridinyl)-3-methyl-4-quinolinamine], the Ki is reported as 33.4 nM.
With `Cc1c(-c2ccc(F)nc2)nc2cc(F)cc(F)c2c1Nc1cc(N2CCOCC2)cnc1N1CCOCC1` [N-(2,5-di-4-morpholinyl-3-pyridinyl)-5,7-difluoro-2-(6-fluoro-3-pyridinyl)-3-methyl-4-quinolinamine] the Ki was 18.5 nM.
With `COc1ccc(-c2nc3cc(F)cc(F)c3c(Nc3cc(N4CCOCC4)cnc3N3CCOCC3)c2C)cn1` [N-(2,5-di-4-morpholinyl-3-pyridinyl)-5,7-difluoro-2-(6-methoxy-3-pyridinyl)-3-methyl-4-quinolinamine] the Ki was 33.2 nM.
`Cc1c(-c2cccc3c2cnn3C)nc2cc(F)cc(F)c2c1Nc1cc(N2CCOCC2)cnc1N1CCOCC1` [N-(2,5-di-4-morpholinyl-3-pyridinyl)-5,7-difluoro-3-methyl-2-(1-methyl-1H-indazol-4-yl)-4-quinolinamine] gave a Ki of 8.6 nM.
For `Cc1c(-c2cccc3c2ccn3C)nc2cc(F)cc(F)c2c1Nc1cc(N2CCOCC2)cnc1N1CCOCC1` [N-(2,5-di-4-morpholinyl-3-pyridinyl)-5,7-difluoro-3-methyl-2-(1-methyl-1H-indol-4-yl)-4-quinolinamine], the Ki was 16.1 nM.
